Each structure is given as a SMILES string.

Molecule `c1c[nH]cn1` showed a log10 OH rate constant (cm³/molecule/s) (24.0 °C) of -10.4.

Molecule `C/C=C/C=O` yielded a log10 OH rate constant (cm³/molecule/s) (25.0 °C) of -10.4.

Molecule `C1CCC2CCCCC2C1` (stereo unspecified) gave a log10 OH rate constant (cm³/molecule/s) (25.0 °C) of -10.7.

For the setting “25.0 °C”, `CCCCCCCCC(C)=O` registered a log10 OH rate constant (cm³/molecule/s) of -10.9.

On to `C=Cc1ccccc1`, for which, under “25.0 °C”, the log10 OH rate constant (cm³/molecule/s) is -10.2.

Where the note is “25.0 °C”, `C1CCOC1` returned a log10 OH rate constant (cm³/molecule/s) of -10.8.

The molecule `N#Cc1ccccc1` came in with a log10 OH rate constant (cm³/molecule/s) (25.0 °C) of -12.5.

On to `CC(F)(F)F`, for which, under “25.0 °C”, the log10 OH rate constant (cm³/molecule/s) was -14.8.

Under “25.0 °C”, `C=C=C(C)C` came in with a log10 OH rate constant (cm³/molecule/s) of -10.2.

As to `Cc1cccc2ccccc12`, for the setting “25.0 °C”, the log10 OH rate constant (cm³/molecule/s) was -10.3.

For `OC1CCCC1`, the log10 OH rate constant (cm³/molecule/s) (25.0 °C) is -11.

For `C1COCCO1`, the log10 OH rate constant (cm³/molecule/s) (25.0 °C) is -11.

Take `c1ncncn1`: the log10 OH rate constant (cm³/molecule/s) (23.0 °C) is -12.8.

Consider `C1CCSC1`, for which, where the note is “25.0 °C”, the log10 OH rate constant (cm³/molecule/s) was -10.7.

In turn, `C1CCCC1` registered a log10 OH rate constant (cm³/molecule/s) (25.0 °C) of -11.3.

Under “25.0 °C”, `CCCC(C)(C)C` had a log10 OH rate constant (cm³/molecule/s) of -11.5.

Consider `C1=CC2CCC1C2`, for which the log10 OH rate constant (cm³/molecule/s) (25.0 °C) was -10.3.

For the setting “25.0 °C”, `COC(C)(C)OC` returned a log10 OH rate constant (cm³/molecule/s) of -11.4.

Molecule `C=CCC=C` had a log10 OH rate constant (cm³/molecule/s) (25.0 °C) of -10.3.

Consider `C=CCCC=C`, for which the log10 OH rate constant (cm³/molecule/s) (25.0 °C) is -10.2.

`O=CCCCC=O` came in with a log10 OH rate constant (cm³/molecule/s) (25.0 °C) of -10.6.

`CC(C)CC(C)C(C)C` (stereo unspecified) returned a log10 OH rate constant (cm³/molecule/s) (25.0 °C) of -11.1.

Turning to `CN(C)CCO`, the log10 OH rate constant (cm³/molecule/s) (25.0 °C) was -10.

`CCCCCCC(C)C` gave a log10 OH rate constant (cm³/molecule/s) (25.0 °C) of -11.

Consider `CCC(C)CS` (stereo unspecified), for which the log10 OH rate constant (cm³/molecule/s) (25.0 °C) is -10.3.

Under “25.0 °C”, `CCC(=O)O` registered a log10 OH rate constant (cm³/molecule/s) of -11.9.

On to `CC(=O)CO`, for which, for the setting “25.0 °C”, the log10 OH rate constant (cm³/molecule/s) is -11.5.

With `c1cscn1`, the log10 OH rate constant (cm³/molecule/s) (24.0 °C) is -11.9.

Take `CC(C)(C)C`: the log10 OH rate constant (cm³/molecule/s) (25.0 °C) is -12.1.

In turn, `C1CCCCCCC1` showed a log10 OH rate constant (cm³/molecule/s) (25.0 °C) of -10.9.

As to `Fc1ccccc1`, the log10 OH rate constant (cm³/molecule/s) (25.0 °C) is -12.2.

In the case of `CCCCC=O`, the log10 OH rate constant (cm³/molecule/s) (25.0 °C) was -10.5.

In turn, `c1ccc2ccccc2c1` showed a log10 OH rate constant (cm³/molecule/s) (25.0 °C) of -10.7.

In the case of `ClC(Cl)Cl`, where the note is “25.0 °C”, the log10 OH rate constant (cm³/molecule/s) was -13.

On to `CC(C)CC=O`, for which the log10 OH rate constant (cm³/molecule/s) (25.0 °C) was -10.6.

Where the note is “25.0 °C”, `CCOCOCC` displayed a log10 OH rate constant (cm³/molecule/s) of -10.8.

Under “25.0 °C”, `CCCCC(C)O` (stereo unspecified) had a log10 OH rate constant (cm³/molecule/s) of -10.9.

As for `C#C`, the log10 OH rate constant (cm³/molecule/s) (25.0 °C) is -12.1.

In turn, `C1CO1` registered a log10 OH rate constant (cm³/molecule/s) (25.0 °C) of -13.1.

In turn, `CC(C)c1ccccc1` gave a log10 OH rate constant (cm³/molecule/s) (25.0 °C) of -11.2.

`C#CC#C`: under “25.0 °C”, the log10 OH rate constant (cm³/molecule/s) was -10.7.

The molecule `CC(=O)CC(C)C` yielded a log10 OH rate constant (cm³/molecule/s) (25.0 °C) of -10.9.

Molecule `CC(C)=Cc1ccccc1` displayed a log10 OH rate constant (cm³/molecule/s) (25.0 °C) of -10.5.

For `Cc1ccccc1O`, for the setting “25.0 °C”, the log10 OH rate constant (cm³/molecule/s) was -10.4.

For the molecule `C1CC2CCC1C2`, the log10 OH rate constant (cm³/molecule/s) (25.0 °C) is -11.3.

Turning to `CCF`, the log10 OH rate constant (cm³/molecule/s) (25.0 °C) was -12.6.

For the setting “25.0 °C”, `O=CC=O` registered a log10 OH rate constant (cm³/molecule/s) of -10.9.

The molecule `C=CC(C)=CC` yielded a log10 OH rate constant (cm³/molecule/s) (25.0 °C) of -9.87.

`c1cc[nH]c1` showed a log10 OH rate constant (cm³/molecule/s) (25.0 °C) of -9.96.

`O=C1CCC1` gave a log10 OH rate constant (cm³/molecule/s) (25.0 °C) of -12.1.

For the setting “25.0 °C”, `C=CCO` registered a log10 OH rate constant (cm³/molecule/s) of -10.6.

Under “25.0 °C”, `CCCC(C)O` (stereo unspecified) had a log10 OH rate constant (cm³/molecule/s) of -10.9.

Consider `FC(F)(F)CCl`, for which the log10 OH rate constant (cm³/molecule/s) (25.0 °C) is -13.8.

Molecule `Cc1ccc2ccccc2c1` came in with a log10 OH rate constant (cm³/molecule/s) (25.0 °C) of -10.3.

The molecule `C=C=C` registered a log10 OH rate constant (cm³/molecule/s) (22.0 °C) of -11.

Regarding `C#CCC`, the log10 OH rate constant (cm³/molecule/s) (25.0 °C) is -11.1.

Regarding `C=C(C)C=O`, the log10 OH rate constant (cm³/molecule/s) (25.0 °C) was -10.5.

`C#CC` gave a log10 OH rate constant (cm³/molecule/s) (25.0 °C) of -11.2.

`OCC(Cl)(Cl)Cl`: the log10 OH rate constant (cm³/molecule/s) (25.0 °C) is -12.6.

`CCSC` registered a log10 OH rate constant (cm³/molecule/s) (25.0 °C) of -11.1.

For the setting “25.0 °C”, `C=C=CCC` displayed a log10 OH rate constant (cm³/molecule/s) of -10.4.

As for `CC1=CCC(C(C)C)=CC1`, the log10 OH rate constant (cm³/molecule/s) (25.0 °C) is -9.75.

In turn, `C=CCCCC` had a log10 OH rate constant (cm³/molecule/s) (25.0 °C) of -10.4.

Take `FC(F)C(F)(F)F`: the log10 OH rate constant (cm³/molecule/s) (25.0 °C) was -14.6.

In the case of `ClC=C(Cl)Cl`, for the setting “25.0 °C”, the log10 OH rate constant (cm³/molecule/s) is -11.6.

As to `C=C1C=CC(C(C)C)CC1` (stereo unspecified), the log10 OH rate constant (cm³/molecule/s) (25.0 °C) is -9.77.

For `FC(F)(Cl)Cl`, the log10 OH rate constant (cm³/molecule/s) (25.0 °C) is less than -15.4.

Molecule `C=COC` had a log10 OH rate constant (cm³/molecule/s) (26.0 °C) of -10.5.

Take `Cc1ccc(O)cc1`: the log10 OH rate constant (cm³/molecule/s) (25.0 °C) was -10.3.

For the setting “23.0 °C”, `COC(C)=O` registered a log10 OH rate constant (cm³/molecule/s) of -12.5.

On to `FCF`, for which, for the setting “25.0 °C”, the log10 OH rate constant (cm³/molecule/s) was -14.

Source of the values: the OPERA property sets (Mansouri et al. 2018).
